Values of other authors in article PMC7377474, “Preclinical characterization of CPL302-253, a selective inhibitor of PI3Kδ, as the candidate for the inhalatory treatment and prevention of Asthma” (PLoS ONE, 2020).

Target: T1, hERG (Homo sapiens, UniProt Q12809)
T1 construct: purchased DiscoverX (Eurofins) SafetyScan44
Details: available preclinical data; cited from earlier work

T1 sequence (Q12809 whole entry): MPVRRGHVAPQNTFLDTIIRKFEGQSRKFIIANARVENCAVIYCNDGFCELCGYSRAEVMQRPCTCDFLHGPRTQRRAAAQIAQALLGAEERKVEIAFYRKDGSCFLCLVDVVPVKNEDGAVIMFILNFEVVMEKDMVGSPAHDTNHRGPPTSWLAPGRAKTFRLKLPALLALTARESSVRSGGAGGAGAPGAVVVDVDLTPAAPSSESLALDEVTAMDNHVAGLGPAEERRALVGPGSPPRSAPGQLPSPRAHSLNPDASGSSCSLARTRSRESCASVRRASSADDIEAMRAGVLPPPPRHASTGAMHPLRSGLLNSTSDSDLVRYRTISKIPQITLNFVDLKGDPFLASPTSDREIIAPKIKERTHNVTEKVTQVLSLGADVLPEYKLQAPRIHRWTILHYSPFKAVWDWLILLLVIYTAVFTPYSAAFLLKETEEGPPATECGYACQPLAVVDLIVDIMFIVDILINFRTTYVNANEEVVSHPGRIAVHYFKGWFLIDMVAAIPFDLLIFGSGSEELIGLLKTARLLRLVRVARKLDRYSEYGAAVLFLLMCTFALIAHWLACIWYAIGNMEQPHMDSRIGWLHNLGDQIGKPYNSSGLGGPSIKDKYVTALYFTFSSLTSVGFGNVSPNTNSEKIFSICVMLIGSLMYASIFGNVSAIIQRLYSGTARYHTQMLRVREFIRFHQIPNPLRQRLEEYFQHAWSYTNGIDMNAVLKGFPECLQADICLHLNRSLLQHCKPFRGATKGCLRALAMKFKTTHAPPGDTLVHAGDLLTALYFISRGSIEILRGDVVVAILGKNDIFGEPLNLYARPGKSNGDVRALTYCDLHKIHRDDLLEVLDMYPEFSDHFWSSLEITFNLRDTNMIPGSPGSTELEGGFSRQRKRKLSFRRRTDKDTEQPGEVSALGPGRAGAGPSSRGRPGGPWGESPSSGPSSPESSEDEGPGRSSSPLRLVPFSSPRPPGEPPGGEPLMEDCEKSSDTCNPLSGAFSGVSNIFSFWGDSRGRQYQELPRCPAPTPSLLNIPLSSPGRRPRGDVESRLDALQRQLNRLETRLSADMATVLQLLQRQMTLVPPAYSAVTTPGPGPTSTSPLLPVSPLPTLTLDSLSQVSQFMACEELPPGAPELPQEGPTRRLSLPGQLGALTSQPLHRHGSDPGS

For `CC(C)N1CCN(Cc2cnc(-c3cc(-c4cccc5[nH]ccc45)cc4[nH]ncc34)o2)CC1` [Nemiralisib], the “activity towards hERG” value is listed as “has activity towards hERG”.
